Experimental data published in ChEMBL document CHEMBL5154738, “Design, synthesis and structural-activity relationship studies of phanginin A derivatives for regulating SIK1-cAMP/CREB signaling to suppress hepatic gluconeogenesis” (Eur J Med Chem, 2022).
The source made the active and inactive calls. The calls are words filed in the database; no cut-off is given here.

Experiments:
[1] = Cytotoxicity against C57BL/6J mouse primary hepatocytes assessed as cell viability at 50 uM incubated for 24 hrs by MTT assay relative to control; type: toxicity, cell-based, Hepatocyte; settings: read-out: Activity
[2] = Cytotoxicity against C57BL/6J mouse primary hepatocytes assessed as cell viability at 20 uM incubated for 24 hrs by MTT assay relative to control; type: toxicity, cell-based, Hepatocyte; settings: read-out: Activity
[3] = Inhibition of gluconeogenesis in C57BL/6J mouse primary hepatocytes assessed as inhibition of glucagon-stimulated glucose production at 10 uM preincubated for 1.5 hrs followed by lactate and pyruvate addition and later stimulated with glucagon for 4 hrs; type: functional; settings: Hepatocyte, time 5.5 hrs
[4] = Cytotoxicity against C57BL/6J mouse primary hepatocytes assessed as cell viability at 200 uM incubated for 24 hrs by MTT assay relative to control; type: toxicity, cell-based, Hepatocyte; settings: read-out: Activity
[5] = Cytotoxicity against C57BL/6J mouse primary hepatocytes assessed as cell viability at 100 uM incubated for 24 hrs by MTT assay relative to control; type: toxicity, cell-based, Hepatocyte; settings: read-out: Activity
[6] = Cytotoxicity against C57BL/6J mouse primary hepatocytes assessed as cell viability at 10 uM incubated for 24 hrs by MTT assay relative to control; type: toxicity, cell-based, Hepatocyte; settings: read-out: Activity
[7] = Inhibition of gluconeogenesis in C57BL/6J mouse primary hepatocytes assessed as inhibition of glucagon-stimulated glucose production at 2.5 uM preincubated for 1.5 hrs followed by lactate and pyruvate addition and later stimulated with glucagon for 4 hrs; type: functional; settings: Hepatocyte, time 5.5 hrs
[8] = Inhibition of gluconeogenesis in C57BL/6J mouse primary hepatocytes assessed as inhibition of glucagon-stimulated glucose production at 5 uM preincubated for 1.5 hrs followed by lactate and pyruvate addition and later stimulated with glucagon for 4 hrs; type: functional; settings: Hepatocyte, time 5.5 hrs
Mus musculus [9] = experiment: Anti-hyperglycemic activity in ob/ob mouse assessed as reduction in fasting blood glucose level at 100 mg/kg, po administered once daily and measured after 21 days relative to control; type: functional; settings: 504 h, time 21 day
Mus musculus [10] = experiment: Acute hypoglycemic activity in type 2 diabetic ob/ob mouse assessed as reduction in fasting blood glucose level at 100 mg/kg, po administered as single dose and measured for 10 hrs; type: functional, organism-based
Mus musculus [11] = experiment: Anti-hyperglycemic activity in ob/ob mouse assessed as reduction in non-fasting blood glucose level at 100 mg/kg, po administered once daily and measured after 21 days relative to control; type: functional; settings: 504 h, time 21 day
Mus musculus [12] = experiment: In vivo activation of SIK1 in ob/ob mouse assessed as increase in SIK1 phosphorylation at Thr182 residue in liver at 100 mg/kg, po administered once daily for 21 days by western blot analysis; type: functional, organism-based; settings: time 21.0 day
Mus musculus [13] = experiment: Anti-hyperglycemic activity in ob/ob mouse assessed as reduction in non-fasting blood glucose level at 100 mg/kg, po administered once daily and measured after 8 days relative to control; type: functional; settings: 192 h, time 8 day
Mus musculus [14] = experiment: Anti-hyperglycemic activity in ob/ob mouse assessed as reduction in fasting blood glucose level at 100 mg/kg, po administered once daily and measured after 4 days relative to control; type: functional; settings: 96 h, time 4 day
Mus musculus [15] = experiment: In vivo activation of SIK1 in ob/ob mouse assessed as decrease in CREB phosphorylation in liver at 100 mg/kg, po administered once daily for 21 days by western blot analysis; type: functional, organism-based; settings: time 21.0 day
[16] = molecular target: Serine/threonine-protein kinase SIK1 (Mus musculus) (UniProt Q60670); experiment: Activation of SIK1 in C57BL/6J mouse primary hepatocytes assessed as increase in SIK1 phosphorylation at Thr182 residue measured after 2 hrs by western blot analysis; type: cell-based; settings: Primary hepatocyte, filed as activator, dose 2.5-10 µM, DDE = dose-dependent effect
Chain of Serine/threonine-protein kinase SIK1 (Mus musculus) (Q60670 whole entry): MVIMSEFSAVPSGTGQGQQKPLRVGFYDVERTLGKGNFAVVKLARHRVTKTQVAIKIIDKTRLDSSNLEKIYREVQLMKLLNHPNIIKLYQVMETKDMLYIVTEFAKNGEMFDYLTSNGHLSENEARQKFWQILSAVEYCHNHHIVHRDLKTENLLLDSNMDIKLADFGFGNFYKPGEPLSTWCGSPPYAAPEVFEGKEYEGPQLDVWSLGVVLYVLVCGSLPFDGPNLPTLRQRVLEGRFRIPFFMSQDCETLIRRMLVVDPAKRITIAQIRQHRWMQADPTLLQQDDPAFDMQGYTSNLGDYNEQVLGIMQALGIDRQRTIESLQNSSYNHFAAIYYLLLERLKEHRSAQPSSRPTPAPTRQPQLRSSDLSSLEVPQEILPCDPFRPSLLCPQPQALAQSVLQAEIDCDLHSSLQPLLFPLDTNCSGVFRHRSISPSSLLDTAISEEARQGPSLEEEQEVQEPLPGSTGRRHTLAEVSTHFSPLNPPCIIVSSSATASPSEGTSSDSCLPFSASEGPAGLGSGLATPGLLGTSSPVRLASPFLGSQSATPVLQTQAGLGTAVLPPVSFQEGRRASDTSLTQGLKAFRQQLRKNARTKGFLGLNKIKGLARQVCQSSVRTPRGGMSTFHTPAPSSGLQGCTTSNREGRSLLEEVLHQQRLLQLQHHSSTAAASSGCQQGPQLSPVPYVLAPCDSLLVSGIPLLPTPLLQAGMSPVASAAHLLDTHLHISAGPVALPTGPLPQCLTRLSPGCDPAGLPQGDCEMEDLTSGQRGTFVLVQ

| SMILES | viability at 24 h, 50 µM [1] [%] | viability at 24 h, 20 µM [2] [%] | inhibition at 10 µM [3] [%] | viability at 24 h, 200 µM [4] [%] | viability at 24 h, 100 µM [5] [%] | viability at 24 h, 10 µM [6] [%] | inhibition at 2.5 µM [7] [%] | inhibition at 5 µM [8] [%] | other results |
| --- | --- | --- | --- | --- | --- | --- | --- | --- | --- |
| CC(=O)OC[C@@]12CCCC3([C@H](OCCO)OC1)[C@H]2CC[C@H]1[C@@H](C)c2ccoc2C[C@@H]13 | 85 | 78.1 | 82.7 | 14.2 | 92.4 | 83.2 | -2.1 | 32.1 | – |
| COC(=O)[C@@]12CCCC3([C@H](O)OC1)[C@H]2CC[C@H]1[C@@H](C)c2ccoc2C[C@@H]13 | 29.4 | 84.6 | 70.5 | 7.2 | 7.5 | 99 | 24.9 | 49.7 | inhibition in vivo at 100 mg/kg (Mus musculus [9]): 33.3%; Activity (Mus musculus [10]): Active; inhibition in vivo at 100 mg/kg (Mus musculus [11]): 23.8%; Activity (Mus musculus [12]): Active; inhibition in vivo at 100 mg/kg (Mus musculus [13]): 28.2%; inhibition in vivo at 100 mg/kg (Mus musculus [14]): 24%; Activity (Mus musculus [15]): Active |
| COC(=O)[C@@]12CCCC3([C@H](OCCOCCO)OC1)[C@H]2CC[C@H]1[C@@H](C)c2ccoc2C[C@@H]13 | 12 | 17.4 | 95.6 | 7.9 | 10.6 | 28.3 | 67.3 | 93.3 | Activity [16]: Dde |
| CCCNC(=O)[C@@]12CCCC3([C@H](OCCO)OC1)[C@H]2CC[C@H]1[C@@H](C)c2ccoc2C[C@@H]13 | 70.5 | 77.5 | 62.1 | 27.5 | 57.4 | 84.3 | 21.2 | 45 | – |
| COC(=O)[C@@]12CCCC3([C@H](OCCOCCOCCO)OC1)[C@H]2CC[C@H]1[C@@H](C)c2ccoc2C[C@@H]13 | 12.1 | 23.4 | 97.1 | 8.1 | 10.3 | 40.5 | 47.2 | 97.4 | – |
| COC(=O)[C@@]12CCCC3([C@H](OCCCCCO)OC1)[C@H]2CC[C@H]1[C@@H](C)c2ccoc2C[C@@H]13 | 17.2 | 33.3 | 89.2 | 18.7 | 19.3 | 70.1 | 32.2 | 82.7 | – |
| COC(=O)[C@@]12CCCC3([C@H](OCCOCCOCCOCCO)OC1)[C@H]2CC[C@H]1[C@@H](C)c2ccoc2C[C@@H]13 | 12.9 | 25.4 | 111 | 7.9 | 11 | 48.9 | 63.1 | 87.8 | Activity [16]: Dde |
| COC(=O)[C@@]12CCCC3([C@H](OCCO)OC1)[C@H]2CC[C@H]1[C@@H](C)C2=CC(=O)O[C@]2(O)C[C@@H]13 | – | – | -12.3 | – | – | – | – | – | – |
| CCCCO[C@@H]1OC[C@@]2(C(=O)OC)CCCC13[C@H]2CC[C@H]1[C@@H](C)c2ccoc2C[C@@H]13 | – | – | 36.2 | – | – | – | – | – | – |
| COC(=O)[C@@]12CCCC3([C@H](OCCCO)OC1)[C@H]2CC[C@H]1[C@@H](C)c2ccoc2C[C@@H]13 | 14.1 | 20.6 | 97.5 | 9.9 | 12 | 49.7 | 32.7 | 81.8 | – |
| C[C@H]1c2ccoc2C[C@H]2[C@H]1CC[C@@H]1C23CCC[C@]1(CO)CO[C@H]3OCCO | 63.9 | 69.6 | 71.1 | 13.2 | 42.2 | 74.8 | 41.4 | 69.4 | – |
| COC(=O)[C@@]12CCCC3([C@H](OC)OC1)[C@H]2CC[C@H]1[C@@H](C)c2ccoc2C[C@@H]13 | – | – | 18.8 | – | – | – | – | – | – |
| CCNC(=O)[C@@]12CCCC3([C@H](OCCO)OC1)[C@H]2CC[C@H]1[C@@H](C)c2ccoc2C[C@@H]13 | 90 | 84.1 | 66.1 | 47.5 | 73.4 | 84.2 | 21.8 | 52.8 | – |
| COC(=O)[C@@]12CCC[C@]3(COC1)[C@H]1Cc4occc4[C@H](C)[C@@H]1CC[C@@H]23 | – | – | 52 | – | – | – | – | – | – |
| C[C@H]1c2ccoc2C[C@H]2[C@H]1CC[C@@H]1C23CCC[C@]1(C(=O)O)CO[C@H]3OCCO | – | – | 24.3 | – | – | – | – | – | – |
| COC(=O)[C@@]12CCCC3([C@H](OCCCCCCO)OC1)[C@H]2CC[C@H]1[C@@H](C)c2ccoc2C[C@@H]13 | 28.6 | 81.5 | 81.8 | 11.4 | 11.3 | 89.3 | 33.5 | 67.2 | – |
| CCO[C@@H]1OC[C@@]2(C(=O)OC)CCCC13[C@H]2CC[C@H]1[C@@H](C)c2ccoc2C[C@@H]13 | – | – | 24.9 | – | – | – | – | – | – |
| CNC(=O)[C@@]12CCCC3([C@H](OCCO)OC1)[C@H]2CC[C@H]1[C@@H](C)c2ccoc2C[C@@H]13 | 85.8 | 84.7 | 56.6 | 76.3 | 82.6 | 82.9 | 9.6 | 34.2 | – |
| COC(=O)[C@]12CCC[C@]3(COC1)[C@H]1C[C@H]4OCC[C@H]4[C@H](C)[C@@H]1CC[C@@H]23 | – | – | 36.3 | – | – | – | – | – | – |
| COC(=O)[C@]12CCCC3([C@H]1CC[C@H]1[C@@H](C)c4ccoc4C[C@@H]13)[C@H](SCCO)OC2 | 74.1 | 97.9 | 67.3 | 9.2 | 10.2 | 105 | 13.1 | 44.4 | – |
| CC(=O)OCCO[C@@H]1OC[C@@]2(CO)CCCC13[C@H]2CC[C@H]1[C@@H](C)c2ccoc2C[C@@H]13 | 77.7 | 84.1 | 77.3 | 14.1 | 79.9 | 81.7 | 25.1 | 54.4 | – |
| COC(=O)[C@@]12CCCC3([C@H](OCCCCO)OC1)[C@H]2CC[C@H]1[C@@H](C)c2ccoc2C[C@@H]13 | 19.8 | 27.5 | 92.7 | 17.6 | 18.7 | 54 | 47 | 95.8 | – |
| COC(=O)[C@@]12CCCC3([C@H](OCCO)OC1)[C@H]2CC[C@H]1[C@@H](C)[C@@H]2CCO[C@@H]2C[C@@H]13 | – | – | 15.9 | – | – | – | – | – | – |
| COC(=O)[C@@]12CCC[C@]3(C(=O)OC1)[C@H]1Cc4occc4[C@H](C)[C@@H]1CC[C@@H]23 | – | – | 41.2 | – | – | – | – | – | – |
| COC(=O)[C@@]12CCCC3([C@H](O)OC1)[C@H]2CC[C@H]1[C@@H](C)[C@@H]2CCO[C@@H]2C[C@@H]13 | – | – | 41.1 | – | – | – | – | – | – |
